Our source for the IC50 values is patent US6004960A, “Pyridazinones as inhibitors of cyclooxygenase-2” (Merck Frosst Canada, Inc., priority 1998, dated 1999).

Experiment [1] has as its target T1, COX-1 (Homo sapiens, UniProt P23219). Description: Human whole blood assay, COX-1 (clotting-induced TxB2 production). Format: cell-based. Also noted: platelets in whole blood contain a large amount of the COX-1 enzyme; from tissue; host or cells: fresh human whole blood (platelets), allowed to clot. The note with it: clotting-induced TxB2, 1 hour at 37° C, read-out: COX-1 (IC50 μM) HWB. As to the method:
Human whole blood provides a protein and cell-rich milieu appropriate for the study of biochemical efficacy of anti-inflammatory compounds such as selective COX-2 inhibitors. […] This is consistent with the observation that COX-2 inhibitors have no effect on PGE2 production in normal blood. These inhibitors are active only after incubation of human whole blood with LPS, which induces COX-2. This assay can be used to evaluate the inhibitory effect of selective COX-2 inhibitors on PGE2 production. As well, platelets in whole blood contain a large amount of the COX-1 enzyme. Immediately following blood clotting, platelets are activated through a thrombin-mediated mechanism. This reaction results in the production of thromboxane B2 (TxB2) via activation of COX-1. Thus, the effect of test compounds on TxB2 levels following blood clotting can be examined and used as an index for COX-1 activity. Therefore, the degree of selectivity by the test compound can be determined by measuring the levels of PGE2 after LPS induction (COX-2) and […] following blood clotting (COX-1) in the same assay.
B. COX-1 (Clotting-induced TxB2 production)
Fresh blood is collected into vacutainers containing no anticoagulants. […] The tubes are vortexed and incubated at 37° C. for 1 hour to allow blood to clot. At the end of incubation, serum is obtained by centrifugation (12,000×g for 5 min.). A 100 μL aliquot of serum is mixed with 400 μL of methanol for protein precipitation. The supernatant is obtained and is assayed for T×B2 using a enzyme immunoassay kit (Cayman, #519031) according to the manufacturer's instruction.

Experiment [2] concerns the target T1, COX-1. Kind of experiment: Assay of COX-1 activity from U937 cell microsomes. Format: biochemical. On the set-up: Assay of COX-1 Activity from U937 cell microsomes; endogenous in cells; host or cells: U937 cells, 100,000×g microsomal pellet. The note with it: PGE2, read-out: COX-1 (IC50 μM) U-937. As to the method:
Assay of COX-1 Activity from U937 cell microsomes
U 937 cells are pelleted by centrifugation at 500×g for 5 min and washed once with phosphate-buffered saline and repelleted. […] The cell suspension is sonicated 4 times for 10 sec and is centrifuged at 10,000×g for 10 min at 4° C. The supernatant is centrifuged at 100,000×g for 1 hr at 4° C. The 100,000×g microsomal pellet is resuspended in 0.1 M Tris-HCl, pH 7.4, 10 mM EDTA to approximately 7 mg protein/ml and stored at -80° C.
Microsomal preparations are thawed immediately prior to use, subjected to a brief sonication, and then diluted to a protein concentration of 125 μg/ml in 0.1 M Tris-HCl buffer, pH 7.4 containing 10 mM EDTA, 0.5 mM phenol, 1 mM reduced glutathione and 1 μM hematin. Assays are performed in duplicate in a final volume of 250 pl. Initially, 5 µl of DMSO vehicle or drug in DMSO are added to 20 μl of 0.1 M Tris-HCl buffer, pH 7.4 containing 10 mM EDTA in wells of a 96-deepwell polypropylene titre plate. 200 μl of the microsomal preparation are then added and pre-incubated for 15 min at room temperature before addition of 25 μl of […] in 0.1 M Tris-HCl and 10 mM EDTA, pH 7.4. Samples are incubated for 40 min at room temperature and the reaction is stopped by the addition of 25 pl of 1 N HCl. Samples are neutralized with 25 μl of 1 N NaOH prior to quantitation of PGE2 content by radioimmunoassay (Dupont-NEN or Amersham assay kits). Cyclooxygenase activity is defined as the difference between PGE2 levels in samples incubated in the presence of arachidonic acid and ethanol vehicle.
(§1) In the assay, inhibition is determined by measuring the amount of prostaglandin E2 (PGE2) synthesized in the presence of arachidonic acid, cyclooxygenase-I or cyclooxygenase-2 and a putative inhibitor.

The target of experiment [3] is T2, COX-2 (Homo sapiens, UniProt P35354).
T2 sequence (P35354 18-604): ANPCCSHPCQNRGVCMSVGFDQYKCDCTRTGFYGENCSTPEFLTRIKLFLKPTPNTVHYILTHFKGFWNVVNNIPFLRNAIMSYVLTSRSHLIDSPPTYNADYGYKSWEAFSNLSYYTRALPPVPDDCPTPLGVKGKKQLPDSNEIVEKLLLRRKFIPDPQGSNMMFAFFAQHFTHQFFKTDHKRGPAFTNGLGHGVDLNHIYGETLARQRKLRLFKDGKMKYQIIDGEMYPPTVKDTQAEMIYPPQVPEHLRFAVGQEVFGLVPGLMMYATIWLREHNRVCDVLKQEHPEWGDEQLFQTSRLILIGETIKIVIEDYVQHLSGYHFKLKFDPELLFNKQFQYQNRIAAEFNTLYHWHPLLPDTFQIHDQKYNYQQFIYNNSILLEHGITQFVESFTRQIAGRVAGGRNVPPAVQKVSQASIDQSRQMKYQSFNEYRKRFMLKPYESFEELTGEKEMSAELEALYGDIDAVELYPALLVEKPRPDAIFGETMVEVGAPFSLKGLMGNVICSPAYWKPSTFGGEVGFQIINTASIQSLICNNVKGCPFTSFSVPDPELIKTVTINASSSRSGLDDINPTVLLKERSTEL
Description: Whole cell assay for COX-2 using CHO transfected cell line (CHO [hCOX-2]), PGE2. Format: cell-based. The note with it: CHO [hCOX-2] cells, 10 μM AA. On the set-up: expressed in transfected cells; host or cells: CHO (Chinese hamster ovary), stably transfected with pCDNAIII vector; CHO [hCOX-2]. As to the method: Chinese hamster ovary (CHO) cell lines which have been stably transfected with an eukaryotic expression vector pCDNAIII containing either the human COX-1 or COX-2 cDNA's are used for the assay. These cell lines are referred to as CHO [hCOX-1] and CHO [hCOX-2], respectively. […] Drugs to be tested are dissolved in DMSO to 66.7-fold the highest test drug concentration. […] Cells (0.3×10^6 cells in 200 p) are preincubated with 3 AIl of the test drug or DMSO vehicle for 15 min at 37° C. […] Cells are then challenged in the presence or absence of drug with the AA/HBSS solution to yield a final concentration of 0.5 μM AA in the CHOhCOX-1] assay and a final concentration of 10 μM AA in the CHO [hCOX-2] assay. […] The samples are centrifuged at 300×g at 4° C. for 10 min, and an aliquot of the clarified supernatant is appropriately diluted for the determination of PGE2 levels using an enzyme-liked immunoassay for PGE2 (Correlate PGE2 enzyme immunoassay kit, Assay Designs, Inc.). Cyclooxygenase activity in the absence of test compounds is determined as the difference in PGE2 levels of cells challenged with arachidonic acid versus the PGE2 levels in cells mock-challenged with ethanol vehicle. Inhibition of PGE2 synthesis by test compounds is calculated as a percentage of the activity in the presence of drug versus the activity in the positive control samples.
as §1

For experiment [4], the target named is T2, COX-2. Description: Human whole blood assay, COX-2 (LPS-induced PGE2 production). Format: cell-based. Also noted: incubation of human whole blood with LPS, which induces COX-2; from tissue; host or cells: fresh human whole blood (volunteers), incubated with LPS. The note with it: LPS-induced PGE2, 24 hours at 37° C, read-out: COX-2 (IC50 μM) HWB. The text has this: As well, platelets in whole blood contain a large amount of the COX-1 enzyme. Immediately following blood clotting, platelets are activated through a thrombin-mediated mechanism. This reaction results in the production of thromboxane B2 (TxB2) via activation of COX-1. Thus, the effect of test compounds on TxB2 levels following blood clotting can be examined and used as an index for COX-1 activity. Therefore, the degree of selectivity by the test compound can be determined by measuring the levels of PGE2 after LPS induction (COX-2) and […] following blood clotting (COX-1) in the same assay.
A. COX-2 (LPS-induced PGE2 production)
Fresh blood is collected in heparinized tubes by venipuncture from both male and female volunteers. The subjects have no apparent inflammatory conditions and have not taken any NSAIDs for at least 7 days prior to blood collection. Plasma is immediately obtained from a 2mL blood aliquot to use as blank (basal levels of PGE2). The remaining blood is incubated with LPS (100 μg/ml final concentration, Sigma Chem, #L-2630 from E. coli; diluted in 0.1% BSA (Phosphate buffered saline) for 5 minutes at room temperature. Five hundred μL aliquots of blood are incubated with either 2μL of vehicle (DMSO) or 2 μL of a test compound at final concentrations varying from 10nM to 30 μM for 24 hours at 37° C. At the end of the incubation, the blood is centrifuged at 12,000×g for 5 minutes to obtain plasma. A 100 μL aliquot of plasma is mixed with 400 μL of methanol for protein precipitation. The supernatant is obtained and is assayed for PGE2 using a radioimmunoassay kit (Amersham, RPA#530) after conversion of PGE2 to its methyl oximate derivative according to the manufacturer's procedure. […]

T1 sequence (P23219 24-599): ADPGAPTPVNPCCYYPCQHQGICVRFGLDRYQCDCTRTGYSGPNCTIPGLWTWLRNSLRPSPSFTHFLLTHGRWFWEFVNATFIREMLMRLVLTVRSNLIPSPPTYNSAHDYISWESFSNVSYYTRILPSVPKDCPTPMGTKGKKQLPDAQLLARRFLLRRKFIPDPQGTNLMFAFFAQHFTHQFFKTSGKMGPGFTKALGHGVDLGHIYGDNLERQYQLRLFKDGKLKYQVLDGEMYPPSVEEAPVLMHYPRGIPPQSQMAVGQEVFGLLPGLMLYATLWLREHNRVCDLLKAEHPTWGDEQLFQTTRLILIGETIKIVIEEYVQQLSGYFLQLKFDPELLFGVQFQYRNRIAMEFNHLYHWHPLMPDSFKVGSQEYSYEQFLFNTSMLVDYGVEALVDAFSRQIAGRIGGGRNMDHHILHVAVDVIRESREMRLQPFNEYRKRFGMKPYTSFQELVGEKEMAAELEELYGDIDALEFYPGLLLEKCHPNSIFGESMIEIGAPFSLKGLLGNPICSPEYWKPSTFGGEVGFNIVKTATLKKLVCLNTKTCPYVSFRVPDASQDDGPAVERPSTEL

As a reminder, the IC50 is the concentration needed to halve the response being measured. For `CC(C)Oc1c(-c2ccc(S(C)(=O)=O)cc2)cnn(Cc2ccccc2)c1=O` [Example 21, 2-Benzyl-4-(2-propoxy)-5-(4-methylsulfonyl)phenyl-2H-pyridazin-3-one], the IC50 on COX-1 [1] is > 100 µM.
For the compound `CS(=O)(=O)c1ccc(-c2cnn(Cc3ccccc3)c(=O)c2Oc2ccc(F)cc2)cc1` [Example 22, 2-Benzyl-4-(4-fluorophenoxy)-5-(4-methylsulfonyl)phenyl-2H-pyridazin-3-one], the IC50 on COX-1 [1] is 9 µM; on COX-1 [2], 0.3 to 1 µM.
Regarding `CS(=O)(=O)c1ccc(-c2cnn(CCCC(F)(F)F)c(=O)c2-c2ccc(F)cc2)cc1` [Example 29, 4-(4-Fluorophenyl)-5-(4-methylsulfonyl)phenyl-2-(4,4,4-trifluorobutyl)-2H-pyridazin-3-one], the IC50 on COX-2 [3] was 0.18 µM; at COX-1 [2], > 10 µM; on COX-2 [4], 1.3 µM.
On the same counts, the results for `CC(C)Cn1ncc(-c2ccc(S(C)(=O)=O)cc2)c(-c2ccc(F)cc2)c1=O` [Example 31, 4-(4-Fluorophenyl)-2-(2-methylpropyl)-5-(4-methylsulfonyl)phenyl-2H-pyridazin-3-one] are 0.18 µM, > 10 µM and 3.8 µM.
On the same counts, the results for `CS(=O)(=O)c1ccc(-c2cnn(CC3CCC3)c(=O)c2-c2ccc(F)cc2)cc1` [Example 32, 2-Cyclobutylmethyl-4-(4-fluorophenyl)-5-(4-methylsulfonyl)phenyl-2H-pyridazin-3-one] are 0.029 µM, ~10 µM and 0.56 µM.
